14 molecules from patent US20240025919A1, “AZA-TETRACYCLIC OXAZEPINE COMPOUNDS AND USES THEREOF” (Genentech, Inc., priority 2022, published 2024) can be followed below.

In experiment [1] the target is KRAS WT (Homo sapiens (Human), UniProt P01116). Briefly: KRAS WT Biochemical Assay, BODIPY-GDP Exchange TR-FRET (Example 502; 0.06 nM KRAS WT, 15 nM GDP, 300 nM SOS1, 120-minute incubation). The conditions noted are these: read-out: KRas HTRF IC50. As to the method:
Example 502: KRAS WT Biochemical Assay, BODIPY-GDP Exchange TR-FRET. Biochemical compound potencies are assessed by evaluating inhibition of SOS1-mediated nucleotide exchange in KRAS WT. In this assay, the SOS1-promoted exchange of fluorescently-labeled GDP (BOPIDY-GDP) is monitored by time-resolved fluorescence resonance energy transfer (TR-FRET). Compounds solubilized in DMSO are dispensed as concentration series into 384-well white assay plates. A preformed complex of 0.06 nM biotin-tagged recombinant human KRAS WT, 15 nM GDP and 0.06 nM terbium-labeled streptavidin (CisBIO) prepared in 10 uL/well assay buffer (20 mM HEPES, pH 7.5, 50 mM NaCl, 10 mM MgCl2, 0.01% Tween-20 and 1 mM dithiothreitol) is added and allowed to incubate for 10-minutes at room temperature. The reaction is initiated with the addition of 5 uL 300 nM recombinant human SOS1 and 300 nM BODIPY-GDP in assay buffer. After a 120-minute incubation, the fluorescence is measured with excitation at 337 nm and emission at 490 and 520 nm. The TR-FRET ratio is determined as the fluorescence at 520 nm divided by the fluorescence at 490 nm multiplied by 10,000. The results are normalized to percent inhibition based on control samples: DMSO (0% inhibition) and control compound at a concentration that inhibits completely (100% inhibition). The normalized TR-FRET results are plotted against compound concentration, and the data are fit to a 4-parameter Hill equation to determine the IC50 values.
In general terms: Time-resolved FRET reads energy transfer from a long-lived donor to a nearby acceptor.

The target in experiment [2] is KRAS G12D (Homo sapiens (Human), UniProt P01116, G12D). Briefly: KRAS G12D LoEnz Biochemical Assay, BODIPY-GDP Exchange TR-FRET (SOS1-mediated nucleotide exchange). The following applies: read-out: KRas (G12D) GDP HTRF IC50.
Chain of KRAS G12D (P01116-2 other isoform, or with tags, fused parts or gaps G12D): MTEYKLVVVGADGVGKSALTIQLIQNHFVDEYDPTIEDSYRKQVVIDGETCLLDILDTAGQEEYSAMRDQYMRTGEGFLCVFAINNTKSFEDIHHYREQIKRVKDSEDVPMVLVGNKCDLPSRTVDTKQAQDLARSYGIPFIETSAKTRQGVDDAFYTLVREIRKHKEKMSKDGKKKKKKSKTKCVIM

Chain of KRAS WT (P01116-2 other isoform, or with tags, fused parts or gaps): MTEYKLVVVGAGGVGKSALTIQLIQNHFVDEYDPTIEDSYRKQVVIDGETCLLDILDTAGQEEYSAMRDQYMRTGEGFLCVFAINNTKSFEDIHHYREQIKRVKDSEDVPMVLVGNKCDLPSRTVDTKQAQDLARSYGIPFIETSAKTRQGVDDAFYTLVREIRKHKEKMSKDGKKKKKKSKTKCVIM

Usually IC50 stands for the concentration that gives 50% inhibition. With `Cc1cc(N)cc(-c2nc3c4c(nc(OC[C@@]56CCCN5CC5(CC5(F)F)C6)nc4c2F)N2C[C@H]4CC[C@H](N4)[C@H]2[C@H](C)O3)c1C(F)(F)F` (stereo partly drawn) [Compound 68, 3-((5S,5aS,6S,9R)-12-(((7a′S)-2,2-Difluorodihydro-1′H,3′H-spiro[cyclopropane-1,2′-pyrrolizin]-7a′(5′H)-yl)methoxy)-1-fluoro-5-methyl-5a,6,7,8,9,10-hexahydro-5H-4-oxa-3,10a,11,13,14-pentaaza[6,9]methanonaphtho[1,8-ab]heptalen-2-yl)-5-methyl-4-(trifluoromethyl)aniline], the values for the IC50 in experiment [1] and in experiment [2] were 0.112 nM and 0.07 nM, respectively.

On to `Cc1cc(N)cc(-c2nc3c4c(nc(OC[C@]56CCCN5CC(F)(F)C6)nc4c2F)N2C[C@H]4CC[C@H](N4)[C@H]2[C@H](C)O3)c1C(F)(F)F` [Compound 69, 3-((5S,5aS,6S,9R)-12-(((R)-2,2-Difluorotetrahydro-1H-pyrrolizin-7a(5H)-yl)methoxy)-1-fluoro-5-methyl-5a,6,7,8,9,10-hexahydro-5H-4-oxa-3,10a,11,13,14-pentaaza-6,9-methanonaphtho[1,8-ab]heptalen-2-yl)-5-methyl-4-(trifluoromethyl)aniline], for which the IC50 in experiment [1] came out at 40.9 nM; in experiment [2], 0.31 nM.

For `C[C@@H]1Oc2nc(-c3cc(N)c(F)cc3C(F)(F)F)c(F)c3nc(OC[C@@H]4CC[C@H]5COCCN54)nc(c23)N2C[C@H]3CC[C@H](N3)[C@@H]12` [Compound 70, 2-Fluoro-5-((5S,5aS,6S,9R)-1-fluoro-12-(((6S,8aS)-hexahydro-1H-pyrrolo[2,1-c][1,4]oxazin-6-yl)methoxy)-5-methyl-5a,6,7,8,9,10-hexahydro-5H-4-oxa-3,10a,11,13,14-pentaaza-6,9-methanonaphtho[1,8-ab]heptalen-2-yl)-4-(trifluoromethyl)aniline], the IC50 turned out to be 169 nM in experiment [1] and 0.71 nM in experiment [2].

For the molecule `C[C@@H]1Oc2nc(-c3cc(N)ccc3C(F)(F)F)c(F)c3nc(OC[C@@]45CCCN4C[C@H](F)C5)nc(c23)N2C[C@H]3CC[C@H](N3)[C@@H]12` [Compound 72, 3-((5S,5aS,6S,9R)-1-Fluoro-12-(((2R,7aS)-2-fluorotetrahydro-1H-pyrrolizin-7a(5H)-yl)methoxy)-5-methyl-5a,6,7,8,9,10-hexahydro-5H-4-oxa-3,10a,11,13,14-pentaaza-6,9-methanonaphtho[1,8-ab]heptalen-2-yl)-4-(trifluoromethyl)aniline], the IC50 in experiment [1] was 12.9 nM; in experiment [2] it was 0.28 nM.

For `C[C@@H]1Oc2nc(-c3cc(N)c(F)cc3C(C)(F)F)c(F)c3nc(OC[C@@]45CCCN4C[C@H](F)C5)nc(c23)N2C[C@H]3CC[C@H](N3)[C@@H]12` [Compound 73, 4-(1,1-difluoroethyl)-2-fluoro-5-((5S,5aS,6S,9R)-1-fluoro-12-(((2R,7aS)-2-fluorotetrahydro-1H-pyrrolizin-7a(5H)-yl)methoxy)-5-methyl-5a,6,7,8,9,10-hexahydro-5H-4-oxa-3,10a,11,13,14-pentaaza-6,9-methanonaphtho[1,8-ab]heptalen-2-yl)aniline], the IC50 was determined as 36.3 nM in experiment [1] and 2.6 nM in experiment [2].

For the molecule `Cc1cc(N)cc(-c2nc3c4c(nc(OC[C@@]56CCCN5C[C@H](F)C6)nc4c2F)N2C[C@H]4CC[C@H](N4)[C@H]2[C@H](C)O3)c1Cl` [Compound 74, 4-Chloro-3-((5S,5aS,6S,9R)-1-fluoro-12-(((2R,7aS)-2-fluorotetrahydro-1H-pyrrolizin-7a(5H)-yl)methoxy)-5-methyl-5a,6,7,8,9,10-hexahydro-5H-4-oxa-3,10a,11,13,14-pentaaza-6,9-methanonaphtho[1,8-ab]heptalen-2-yl)-5-methylaniline], the figures for the IC50 in experiment [1] and in experiment [2] were 30.8 nM and 0.33 nM, respectively.

In the case of `Cc1c(F)c(N)cc(-c2nc3c4c(nc(OC[C@@]56CCCN5C[C@H](F)C6)nc4c2F)N2C[C@H]4CC[C@H](N4)[C@H]2[C@H](C)O3)c1CC(F)F` [Compound 75, 4-(2,2-Difluoroethyl)-2-fluoro-5-((5S,5aS,6S,9R)-1-fluoro-12-(((2R,7aS)-2-fluorotetrahydro-1H-pyrrolizin-7a(5H)-yl)methoxy)-5-methyl-5a,6,7,8,9,10-hexahydro-5H-4-oxa-3,10a,11,13,14-pentaaza-6,9-methanonaphtho[1,8-ab]heptalen-2-yl)-3-methylaniline], the IC50 in experiment [1] was found to be 11.8 nM; in experiment [2] it was 0.13 nM.

For `Cc1c(F)c(N)cc(-c2nc3c4c(nc(OC[C@@]56CCCN5C[C@H](F)C6)nc4c2F)N2C[C@H]4CC[C@H](N4)[C@H]2[C@H](C)O3)c1Cl` [Compound 76, 4-Chloro-2-fluoro-5-((5S,5aS,6S,9R)-1-fluoro-12-(((2R,7aS)-2-fluorotetrahydro-1H-pyrrolizin-7a(5H)-yl)methoxy)-5-methyl-5a,6,7,8,9,10-hexahydro-5H-4-oxa-3,10a,11,13,14-pentaaza-6,9-methanonaphtho[1,8-ab]heptalen-2-yl)-3-methylaniline], the IC50 in experiment [1] worked out at 14.3 nM; in experiment [2], 0.13 nM.

With `C[C@@H]1Oc2nc(-c3cc(N)cc(F)c3C(F)(F)F)c(F)c3nc(OC[C@@H]4CC[C@H]5COCCN54)nc(c23)N2C[C@H]3CC[C@H](N3)[C@@H]12` [Compound 77, 3-Fluoro-5-((5S,5aS,6S,9R)-1-fluoro-12-(((6S,8aS)-hexahydro-1H-pyrrolo[2,1-c][1,4]oxazin-6-yl)methoxy)-5-methyl-5a,6,7,8,9,10-hexahydro-5H-4-oxa-3,10a,11,13,14-pentaaza-6,9-methanonaphtho[1,8-ab]heptalen-2-yl)-4-(trifluoromethyl)aniline], the results for the IC50 in experiment [1] and in experiment [2] were 21.1 nM and 0.24 nM, respectively.

Take `C[C@@H]1Oc2nc(-c3cc(O)cc4ccc(F)c(F)c34)c(F)c3nc(OC[C@@]45CCCN4C[C@H](F)C5)nc(c23)N2C[C@H]3CC[C@H](N3)[C@@H]12` [Compound 82, 5,6-Difluoro-4-((5S,5aS,6S,9aR)-1-fluoro-12-(((2R,7aS)-2-fluorotetrahydro-1H-pyrrolizin-7a(5H)-yl)methoxy)-5-methyl-5a,6,7,8,9,10-hexahydro-5H-4-oxa-3,10a,11,13,14-pentaaza-6,9-methanonaphtho[1,8-ab]heptalen-2-yl)naphthalen-2-ol]: the IC50 worked out at 23500 nM in experiment [1] and 360 nM in experiment [2].

Consider `C[C@@H]1Oc2nc(-c3cc(N)cc4c3CCC4)c(F)c3nc(OC[C@@]45CCCN4C[C@H](F)C5)nc(c23)N2C[C@H]3CC[C@H](N3)[C@@H]12` [Compound 83, 7-((5S,5aS,6S,9R)-1-Fluoro-12-(((2R,7aS)-2-fluorotetrahydro-1H-pyrrolizin-7a(5H)-yl)methoxy)-5-methyl-5a,6,7,8,9,10-hexahydro-5H-4-oxa-3,10a,11,13,14-pentaaza-6,9-methanonaphtho[1,8-ab]heptalen-2-yl)-2,3-dihydro-1H-inden-5-amine], for which the IC50 in experiment [1] turned out to be 123 nM; in experiment [2], 1.15 nM.

In the case of `C[C@@H]1Oc2nc(-c3nc(N)c(F)cc3C(F)(F)F)c(F)c3nc(OC[C@@]45CCCN4CC4(CC4(F)F)C5)nc(c23)N2C[C@H]3CC[C@H](N3)[C@@H]12` (stereo partly drawn) [Compound 86, 6-((5S,5aS,6S,9R)-12-(((7a′S)-2,2-difluorodihydro-1′H,3′H-spiro-[cyclopropane-1,2′-pyrrolizin]-7a′(5′H)-yl)methoxy)-1-fluoro-5-methyl-5a,6,7,8,9,10-hexahydro-5H-4-oxa-3,10a,11,13,14-pentaaza[6,9]methanonaphtho[1,8-ab]heptalen-2-yl)-3-fluoro-5-(trifluoromethyl)pyridin-2-amine], the results for the half-maximal inhibitory concentration (IC50) in experiment [1] and in experiment [2] were 248 nM and 4.67 nM, respectively.

As for `COc1cc2ccccc2c(-c2nc3c4c(nc(OC[C@]56CCN5CC(F)(F)C6)nc4c2F)N2C[C@H]4CC[C@H](N4)[C@H]2[C@H](C)O3)n1` [Compound 89, (5S,5aS,6S,9R)-12-(((R)-3,3-Difluoro-1-azabicyclo[3.2.0]heptan-5-yl)methoxy)-1-fluoro-2-(3-methoxyisoquinolin-1-yl)-5-methyl-5a,6,7,8,9,10-hexahydro-5H-4-oxa-3,10a,11,13,14-pentaaza-6,9-methanonaphtho[1,8-ab]heptalene], the IC50 in experiment [1] amounted to 1650 nM; in experiment [2] it was 912 nM.

Regarding `C[C@@H]1Oc2nc(-c3c(C(F)(F)F)cc(F)c(N)c3F)c(F)c3nc(OC[C@@]45CCCN4C[C@H](F)C5)nc(c23)N2C[C@H]3CC[C@H](N3)[C@@H]12` [Compound 90, 2,6-Difluoro-3-((5S,5aS,6S,9R)-1-fluoro-12-(((2R,7aS)-2-fluorotetrahydro-1H-pyrrolizin-7a(5H)-yl)methoxy)-5-methyl-5a,6,7,8,9,10-hexahydro-5H-4-oxa-3,10a,11,13,14-pentaaza-6,9-methanonaphtho[1,8-ab]heptalen-2-yl)-4-(trifluoromethyl)aniline], the IC50 was determined as 71.6 nM in experiment [1] and 0.47 nM in experiment [2].
